In US20250120967A1, “TYROSINE KINASES INHIBITORS AND USES THEREOF” (GREAT NOVEL THERAPEUTICS BIOTECH & MEDICALS CORPORATION, priority 2023, published 2025):

Experiments:
Test in all cases: NCI-60 screen (SRB)
Format in all cases: cell-based
OVCAR-3 = conditions: Homo sapiens; OVCAR-3, Ovarian Cancer
Method: (§1) The human tumor cell lines of the cancer screening panel are grown in RPMI 1640 medium containing 5% fetal bovine serum and 2 mM L-glutamine. For a typical screening experiment, cells are inoculated into 96 well microtiter plates in 100 μL at plating densities ranging from 5,000 to 40,000 cells/well depending on the doubling time of individual cell lines. After cell inoculation, the microtiter plates are incubated at 37° C., 5% CO2, 95% air and 100% relative humidity for 24 h prior to addition of experimental drugs. After 24 h, two plates of each cell line are fixed in situ with TCA, to represent a measurement of the cell population for each cell line at the time of drug addition (Tz). Experimental drugs are solubilized in dimethyl sulfoxide at 400-fold the desired final maximum test concentration and stored frozen prior to use. At the time of drug addition, an aliquot of frozen concentrate is thawed and diluted to twice the desired final maximum test concentration with complete medium containing 50 µg/ml gentamicin. An additional four, 10-fold or M log serial dilutions are made to provide a total of five drug concentrations plus control. Aliquots of 100 μl of these different drug dilutions are added to the appropriate microtiter wells already containing 100 μl of medium, resulting in the required final drug concentrations. Following drug addition, the plates are incubated for an additional 48 h at 37° C., 5% CO2, 95% air, and 100% relative humidity. For adherent cells, the assay is terminated by the addition of cold TCA. Cells are fixed in situ by the gentle addition of 50 μl of cold 50% (w/v) TCA (final concentration, 10% TCA) and incubated for 60 minutes at 4° C. The supernatant is discarded, and the plates are washed five times with tap water and air dried. Sulforhodamine B (SRB) solution (100 l) at 0.4% (w/v) in 1% acetic acid is added to each well, and plates are incubated for 10 minutes at room temperature. After staining, unbound dye is removed by washing five times with 1% acetic acid and the plates are air dried. Bound stain is subsequently solubilized with 10 mM trizma base, and the absorbance is read on an automated plate reader at a wavelength of 515 nm. For suspension cells, the methodology is the same except that the assay is terminated by fixing settled cells at the bottom of the wells by gently adding 50 μl of 80% TCA (final concentration, 16% TCA).

RXF 393 = conditions: Homo sapiens; RXF 393, Renal Cancer
Method: as §1

MALME-3M = conditions: Homo sapiens, Melanoma
Method: as §1

T-47D = conditions: Homo sapiens, T47D, Breast Cancer
Method: as §1

NCI-H226 = conditions: Homo sapiens; NCI-H226, Non-Small Cell Lung Cancer
Method: as §1

HCC-2998 = conditions: Homo sapiens; HCC-2998, Colon Cancer
Method: as §1

CAKI-1 = conditions: Homo sapiens; CAKI-1, Renal Cancer
Method: as §1

KM12 = conditions: Homo sapiens; KM12, Colon Cancer
Method: as §1

HCT-15 = conditions: Homo sapiens; HCT-15, Colon Cancer
Method: as §1

A498 = conditions: Homo sapiens; A498, Renal Cancer
Method: as §1

MDA-MB-231/ATCC = conditions: Homo sapiens, Breast Cancer
Method: as §1

NCI-H322M = conditions: Homo sapiens, Non-Small Cell Lung Cancer
Method: as §1

IGROV1 = conditions: Homo sapiens, IGROV-1; IGROV1, Ovarian Cancer
Method: as §1

COLO 205 = conditions: Homo sapiens; COLO 205, Colon Cancer
Method: as §1

MCF7 = conditions: Homo sapiens; MCF7, Breast Cancer
Method: as §1

NCI-H23 = conditions: Homo sapiens; NCI-H23, Non-Small Cell Lung Cancer
Method: as §1

UACC-257 = conditions: Homo sapiens; UACC-257, Melanoma
Method: as §1

SF-539 = conditions: Homo sapiens; SF-539, CNS Cancer
Method: as §1

HCT-116 = conditions: Homo sapiens; HCT-116, Colon Cancer
Method: as §1

UO-31 = conditions: Homo sapiens; UO-31, Renal Cancer
Method: as §1

SF-295 = conditions: Homo sapiens; SF-295, CNS Cancer
Method: as §1

M14 = conditions: Homo sapiens; M14, Melanoma
Method: as §1

SK-OV-3 = conditions: Homo sapiens; SK-OV-3, Ovarian Cancer
Method: as §1

SNB-19 = conditions: Homo sapiens; SNB-19, CNS Cancer
Method: as §1

NCI-H460 = conditions: Homo sapiens; NCI-H460, Non-Small Cell Lung Cancer
Method: as §1

SK-MEL-28 = conditions: Homo sapiens; SK-MEL-28, Melanoma
Method: as §1

HS 578T = conditions: Homo sapiens, Breast Cancer
Method: as §1

MOLT-4 = conditions: Homo sapiens; MOLT-4, Leukemia
Method: as §1

EKVX = conditions: Homo sapiens, Non-Small Cell Lung Cancer
Method: as §1

Row | Compound | GI50 (OVCAR-3) | GI50 (RXF 393) | GI50 (MALME-3M) | GI50 (T-47D) | GI50 (NCI-H226) | GI50 (HCC-2998) | GI50 (CAKI-1) | GI50 (KM12) | GI50 (HCT-15) | GI50 (A498) | GI50 (MDA-MB-231/ATCC) | GI50 (NCI-H322M) | GI50 (IGROV1) | GI50 (COLO 205) | GI50 (MCF7) | GI50 (NCI-H23) | GI50 (UACC-257) | GI50 (SF-539) | GI50 (HCT-116) | GI50 (UO-31) | further results
1 | COc1cc2nccc(Oc3ccc(NC(=O)C4(NC(=O)c5ccc(F)cc5)CC4)cc3F)c2cc1OC [Cbo-02, N-(1-((4-((6,7-diMethoxyquinolin-4-yl)oxy)-3-fluorophenyl)carbamoyl)cyclopropyl)-4-fluorobenzamide] | 2.4 µM | 2.05 µM | 1.74 µM | 2.12 µM | 1.58 µM | 2.5 µM | 1.54 µM | 2 µM | 2.98 µM | 3.28 µM | 1.74 µM | 3.94 µM | 4.48 µM | 1.75 µM | 3.26 µM | 2.06 µM | 2.83 µM | 1.69 µM | 1.52 µM | 2.59 µM | GI50 (SF-295): 2.31 µM; GI50 (M14): 1.91 µM; GI50 (SK-OV-3): 2.27 µM; GI50 (SNB-19): 3.52 µM; GI50 (NCI-H460): 2.75 µM; GI50 (SK-MEL-28): 1.61 µM; GI50 (HS 578T): 2.54 µM; GI50 (MOLT-4): 5.04 µM; GI50 (EKVX): 1.03 µM
2 | COc1cc2nccc(Oc3ccc(NC(=O)C4(NC(=O)c5ccc(F)cc5)CC4)cc3F)c2cc1Oc1ccc(N)cc1F [Cbo-10] | > 100 µM | > 100 µM | 0.313 µM | 1.65 µM | 5.29 µM | 6.04 µM | 0.276 µM | 0.13 µM | 2.41 µM | > 100 µM | 4.43 µM | 0.518 µM | 0.714 µM | 0.931 µM | 0.771 µM | 1.04 µM | 1.72 µM | > 100 µM | 2.63 µM | 1.81 µM | GI50 (SF-295): 0.304 µM; GI50 (M14): 1.49 µM; GI50 (SK-OV-3): 0.302 µM; GI50 (SNB-19): > 100 µM; GI50 (NCI-H460): 1.3 µM; GI50 (SK-MEL-28): 1.81 µM; GI50 (HS 578T): 5.32 µM; GI50 (MOLT-4): 0.777 µM; GI50 (EKVX): 0.488 µM
3 | COc1cc2nccc(Oc3ccc(NC(=O)C4(C(=O)Nc5ccc(F)cc5)CC4)cc3F)c2cc1Oc1ccc(N)cc1F [Cbo-23] | 0.829 µM | 0.103 µM | 0.298 µM | 0.617 µM | 0.276 µM | 2.28 µM | 0.192 µM | < 0.01 µM | 0.315 µM | 0.459 µM | 0.981 µM | 0.444 µM | 0.264 µM | 0.283 µM | 0.294 µM | 0.339 µM | 0.367 µM | 0.179 µM | 0.592 µM | 0.316 µM | GI50 (SF-295): 0.0669 µM; GI50 (M14): 0.459 µM; GI50 (SK-OV-3): 0.464 µM; GI50 (SNB-19): 3.13 µM; GI50 (NCI-H460): 0.457 µM; GI50 (SK-MEL-28): 0.463 µM; GI50 (HS 578T): 0.148 µM; GI50 (MOLT-4): 1.23 µM; GI50 (EKVX): 0.389 µM
